Molecular target: T1, purified human ADE2 (Homo sapiens, UniProt P22234)
T1 sequence (P22234 1-425): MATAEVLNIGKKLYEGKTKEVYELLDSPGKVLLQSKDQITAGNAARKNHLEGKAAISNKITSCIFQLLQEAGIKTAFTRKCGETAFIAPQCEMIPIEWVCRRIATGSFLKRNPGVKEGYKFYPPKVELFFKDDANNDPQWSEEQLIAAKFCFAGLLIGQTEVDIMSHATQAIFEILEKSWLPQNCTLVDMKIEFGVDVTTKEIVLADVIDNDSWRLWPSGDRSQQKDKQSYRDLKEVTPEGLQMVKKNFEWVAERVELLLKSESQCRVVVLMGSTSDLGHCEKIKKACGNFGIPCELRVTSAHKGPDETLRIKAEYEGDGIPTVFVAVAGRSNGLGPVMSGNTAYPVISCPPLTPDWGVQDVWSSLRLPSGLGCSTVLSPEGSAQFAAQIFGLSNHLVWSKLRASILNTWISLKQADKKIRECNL
Test: Assay of purified ADE2 (apparent Ki)
Type: biochemical
Conditions: apparent Ki for ADE2, three separate experiments, read-out: Ki^-1
Experimental: All assays were performed against purified human ADE2. Results shown are from three separate experiments. Compounds that eluted HSP90 selectively had no effect of ADE2 activity in vitro at µM concentrations. […] Table 2. Determination of apparent Ki for ADE2 against GA structural analogs

CO[C@H]1/C=C\C=C(/C)C(=O)NC2=CC(=O)C(NCCN(C)C)=C(C[C@@H](C)C[C@H](OC)[C@H](O)[C@@H](C)/C=C(\C)[C@@H]1OC(N)=O)C2=O [Inhibitor 707545]
Ki: 62.5 µM

— patent EP1169641B1, “PROTEOME MINING” (THE UNIVERSITY OF VIRGINIA PATENT FOUNDATION, priority 1999, dated 2000)
